Like-named read-outs stand apart in the source and are kept apart here.
Tests used:
Pks13 [1] = target: T1, Pks13 (Mycobacterium tuberculosis, UniProt I6X8D2); assay: cell-based; settings: Mycobacterium tuberculosis H37Rv, read-out: % inhibition
Pks13 [2] = target: T1, Pks13; assay: cell-based; settings: Mycobacterium tuberculosis H37Rv, read-out: % inhibition; remark: listed apart in the source

T1 sequence (I6X8D2 whole entry, looked up): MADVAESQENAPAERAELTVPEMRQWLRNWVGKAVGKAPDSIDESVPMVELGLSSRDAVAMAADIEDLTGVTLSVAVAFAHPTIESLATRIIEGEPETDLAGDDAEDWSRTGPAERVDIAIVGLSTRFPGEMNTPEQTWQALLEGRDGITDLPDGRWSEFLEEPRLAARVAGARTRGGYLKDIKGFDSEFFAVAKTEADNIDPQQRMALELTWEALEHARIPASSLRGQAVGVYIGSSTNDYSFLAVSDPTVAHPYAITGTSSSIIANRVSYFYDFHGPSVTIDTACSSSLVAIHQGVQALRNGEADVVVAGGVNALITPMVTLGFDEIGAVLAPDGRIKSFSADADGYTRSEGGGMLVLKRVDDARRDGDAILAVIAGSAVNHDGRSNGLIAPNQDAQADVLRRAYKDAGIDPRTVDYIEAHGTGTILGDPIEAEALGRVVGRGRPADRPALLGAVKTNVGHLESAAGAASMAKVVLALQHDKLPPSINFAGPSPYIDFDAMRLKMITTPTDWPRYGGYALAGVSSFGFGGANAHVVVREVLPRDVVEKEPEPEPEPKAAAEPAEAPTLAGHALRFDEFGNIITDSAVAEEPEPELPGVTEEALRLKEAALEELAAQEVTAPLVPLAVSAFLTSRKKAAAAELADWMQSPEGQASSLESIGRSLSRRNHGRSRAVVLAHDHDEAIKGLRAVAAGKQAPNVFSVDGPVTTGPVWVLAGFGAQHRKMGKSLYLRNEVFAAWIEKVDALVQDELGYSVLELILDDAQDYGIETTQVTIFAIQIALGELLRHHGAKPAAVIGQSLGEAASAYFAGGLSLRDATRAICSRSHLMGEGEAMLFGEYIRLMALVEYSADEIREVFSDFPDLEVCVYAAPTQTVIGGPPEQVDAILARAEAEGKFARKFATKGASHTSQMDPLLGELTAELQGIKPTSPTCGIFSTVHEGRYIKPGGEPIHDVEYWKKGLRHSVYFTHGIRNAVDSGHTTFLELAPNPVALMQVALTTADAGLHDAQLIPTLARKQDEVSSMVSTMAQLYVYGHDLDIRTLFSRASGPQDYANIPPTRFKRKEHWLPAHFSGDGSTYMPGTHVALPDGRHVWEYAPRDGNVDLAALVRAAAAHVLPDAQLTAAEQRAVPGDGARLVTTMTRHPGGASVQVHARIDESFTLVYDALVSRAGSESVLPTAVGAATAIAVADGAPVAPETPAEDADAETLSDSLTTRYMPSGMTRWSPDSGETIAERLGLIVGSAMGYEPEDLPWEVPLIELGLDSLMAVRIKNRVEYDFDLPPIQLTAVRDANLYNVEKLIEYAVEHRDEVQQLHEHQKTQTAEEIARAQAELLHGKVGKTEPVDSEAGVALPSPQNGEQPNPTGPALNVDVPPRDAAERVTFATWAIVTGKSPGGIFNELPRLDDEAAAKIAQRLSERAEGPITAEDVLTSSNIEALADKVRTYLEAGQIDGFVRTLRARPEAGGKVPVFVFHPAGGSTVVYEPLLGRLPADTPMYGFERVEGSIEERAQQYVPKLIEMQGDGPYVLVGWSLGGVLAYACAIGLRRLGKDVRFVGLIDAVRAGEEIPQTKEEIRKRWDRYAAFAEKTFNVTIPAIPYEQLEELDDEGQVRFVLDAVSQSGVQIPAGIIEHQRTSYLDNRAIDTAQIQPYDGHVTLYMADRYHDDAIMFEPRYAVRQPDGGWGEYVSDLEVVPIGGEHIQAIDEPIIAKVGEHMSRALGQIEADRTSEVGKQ

| SMILES | inhibition at 13 µM (Pks13 [1]) | inhibition at 13 µM (Pks13 [2]) |
| --- | --- | --- |
| CC(C)(O)c1cnn(C(=O)N2CCC(C(C)(C)C)CC2)n1 [AA692-(2,4), AA692] | 0% | 18% |
| CC(C)(O)c1cnn(C(=O)N2CCCCC2)n1 [AA702] | – | 0% |
